{"source": "patent US6723716B1", "about": "“7-acylamino-3-heteroarylthio-3-cephem carboxylic acid antibiotics and prodrugs thereof” (Essential Therapeutics, Inc., priority 1999, dated 2004)", "key": {"[1]": {"assay": "Pharmacokinetic evaluation in rat (clearance)", "format": "in vivo", "conditions": "male, Sprague-Dawley (SD), serum, iv, dose 20.0 mg/kg, read-out: Pharmacokinetics Clearance (converted)", "text": "Four male SD rats with femoral and jugular vein catheters were obtained from Hilltop Lab Animals, Inc. (Scottdale, Pa.). The catheters in the femoral and jugular veins were filled with 10 units/mL heparin in saline, and kept patent by changing the solution daily. The animals were quarantined for a minimum of two days prior to use, and were maintained on a 12-h light:dark schedule with constant access to food and water before and during the study. On the day of dosing, the animals weighed […] (mean±s.d.).\nA 4 mg/mL (active component) dosing solution of mesylate salt of compound 17 was prepared in sterile saline for injection. […] Blood samples (0.2 mL aliquots) were collected from the jugular vein catheter 5, 15, 20, 25, 30, and 45 min, and 1, 2, 3, and 4 h after the start of the infusion. The blood was centrifuged for 10 min and the serum was stored ≦−70° C. until analysis by HPLC.\nThe plasma concentrations from individual animals were fit to a two-compartment model with zero order input and first-order elimination from the central compartment using weighted nonlinear regression (WinNonlin, Pharsight, Palo Alto, Calif.). Pharmacokinetic parameters were calculated from the fitted parameters using standard equations (Gibaldi M, Perrier D. 1982. Pharmacokinetics, 2nd ed., Marcel Dekker Inc., New York.)."}, "human serum proteins": {"system": "human serum proteins", "assay": "Serum binding determination by ultrafiltration/HPLC", "format": "in vitro ADME", "conditions": "by HPLC"}, "[2]": {"assay": "In vitro stability of compounds in rat serum", "format": "in vitro ADME", "outline": "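Percent degradation, taken as HPLC peak area (UV 254 and 280 nm) versus the 0 min sample, was tracked at 15, 30 and 60 min. Stocks of 2 mg/mL or 0.2 mg/mL (25 μL into 1000 μL) were spiked into preincubated rat serum at 37° C. Aliquots were precipitated with trichloroacetic acid before injection.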"}}, "data": [{"smiles": "N=C(N)NCCSCc1cnccc1SC1=C(C(=O)O)N2C(=O)[C@@H](NC(=O)/C(=N\\O)c3nsc(N)n3)[C@H]2SC1", "note": "[Cmpd 25, (7R)-7-[(Z)-2-(5-amino-1,2,4-thiadiazol-3-yl)-2-(hydroxyimino)acetamido]-3-[3-(2-guanidinoethylthiomethyl)pyrid-4-ylthio]-3-cephem-4-carboxylic acid]", "values": [{"measurement": "clearance", "setting": "[1]", "result": 18.7, "unit": "mL/min/kg"}, {"measurement": "Serum Binding human (% of compound bound to serum)", "setting": "human serum proteins", "result": 47, "unit": "%"}, {"measurement": "stability of compounds in rat serum", "setting": "[2]; Table 2 data", "result": "improved stability"}, {"measurement": "Stability in rat serum (% loss)", "setting": "[2]; after 60 min exposure to rat serum, 37° C., HPLC", "result": 45, "unit": "%"}]}]}
